Results on 18 compounds are retold here after publication PMC2650103 (Journal of medicinal chemistry, 2008).

Like-named read-outs stand apart in the source and are kept apart here.

The conditions of data set [1]: cited from earlier work.
Data set [2] concerns vaccinia virus WR in BS-C-1 cells. Put plainly: microbe, parasite or virus in culture. As to conditions: Orthopoxvirus vaccinia, BSC-1, 20 h, read-out: Cell Prot EC50. In kind it is cell-based.
The subject of data set [3] is BS-C-1 cells. As to conditions: African green monkey.
For data set [4], the system named is vaccinia virus WR in BS-C-1 cells. In kind it is cell-based.
A short description of data set [5]: Solubility in cell growth medium by light scattering. As to conditions: at the EC50 / over the range of concentrations used in the activity assays.
In data set [6] the test system is vaccinia virus WR in BS-C-1 cells. Put plainly: microbe, parasite or virus in culture. As to conditions: Orthopoxvirus vaccinia, BSC-1, 20 h, read-out: Plaque Red EC50. In kind it is cell-based.
Data set [7] concerns multiple orthopoxviruses, including two strains of variola virus. As to conditions: cited from earlier work.

Take `Nc1ccn(C[C@@H](CO)OCP(=O)(O)O)c(=O)n1.O.O` [CDV, (S)-1-(3-hydroxy-2-phosphonylmethoxypropyl)cytosine, reference compound]: in data set [1], the “Toxicity on intravenous administration” value is listed as “nephrotoxicity”. Besides, the EC50 in data set [2] is 132 µM. In addition, in data set [3], the “Tox 72 h TC50” value is listed as >500 ∞M and the “Tox 120 h TC50” value was 300 ∞M. In addition, in data set [4], the “Trapped by dsDNA” value is “No”.
For the compound `COC(=O)c1cccc2c1-c1ccccc1/C2=N\O` [Compound 1], the “Tox 120 h TC50” value in data set [3] is 20 ∞M. Moreover, in data set [4], the “Trapped by dsDNA” value is “No”.
Regarding `CCOC(=O)c1c(NC(=O)/C=C/C(=O)O)sc(C)c1-c1ccccc1` [Compound 2], the “Trapped by dsDNA” value in data set [4] is listed as “No”.
Turning to `CCn1c2ccccc2c2ccc(/C=N/n3cnnc3)cc21` [Compound 3], in data set [3], the “Tox 72 h TC50” value is recorded as 36 ∞M and the “Tox 120 h TC50” value is reported as 3 ∞M. Moreover, in data set [4], the “Trapped by dsDNA” value was “No”.
Consider `Cc1csc2c(N3CCN(C(=O)NC(C)(C)C)CC3)ncnc12` [Compound 4], for which the “Tox 120 h TC50” value in data set [3] is reported as 40 ∞M. In addition, the “Trapped by dsDNA” value in data set [4] is recorded as “No”.
On to `CCNc1nc(SCc2ccc(Cl)cc2)nc2sc3c(c12)CCN(C)C3` [Compound 5], for which the “Tox 120 h TC50” value in data set [3] is on record as 5 ∞M. Moreover, the “Trapped by dsDNA” value in data set [4] is “No”.
In the case of `Cc1cc(/N=C/c2cc(Cl)cc(Cl)c2O)no1` [Compound 6], in data set [3], the “Tox 72 h TC50” value was 50 ∞M and the “Tox 120 h TC50” value was 20 ∞M. Further, the “Trapped by dsDNA” value in data set [4] is “No”.
In the case of `Cc1c(/N=C/c2cc(Br)cc(Br)c2O)cccc1C(=O)O` [Compound 7], in data set [3], the “Tox 72 h TC50” value is listed as 38 ∞M and the “Tox 120 h TC50” value is recorded as 20 ∞M. Moreover, the “Trapped by dsDNA” value in data set [4] is “No”.
Turning to `Cc1cc(OC(=O)c2ccco2)nc(SCc2c(Cl)cccc2Cl)n1` [Compound 8], the “Solubility in cell growth medium” value in data set [5] is given as “just slightly insoluble”. In data set [3], the “Tox 72 h TC50” value is given as >100 ∞M and the “Tox 120 h TC50” value was >100 ∞M. In data set [4], the “Trapped by dsDNA” value was “No”.
In the case of `O=C(Nc1ccccc1C(=O)O)OCC1c2ccccc2-c2ccccc21` [Compound 9], the concentration for a half-maximal effect (EC50) in data set [2] is 104 µM. In data set [3], the “Tox 72 h TC50” value was 40 ∞M and the “Tox 120 h TC50” value is given as 20 ∞M. The “Trapped by dsDNA” value in data set [4] was “No”.
Regarding `CCS(=O)(=O)N1CCN=C1SCc1ccc(Cl)cc1Cl` [Compound 10], the “Solubility in cell growth medium” value in data set [5] is recorded as “just slightly insoluble”. Also, in data set [4], the “Trapped by dsDNA” value is recorded as “No”.
Regarding `Cc1ccc2c(Sc3ccc(Cl)cc3)c(C(=O)O)[nH]c2c1` [Compound 11], the concentration for a half-maximal effect (EC50) in data set [2] was 130 µM. Also, in data set [3], the “Tox 72 h TC50” value is 174 ∞M and the “Tox 120 h TC50” value is 120 ∞M. Moreover, the “Trapped by dsDNA” value in data set [4] is on record as “No”.
As to `N=C1S/C(=C/c2ccco2)C(=O)N1c1nccs1` [Compound 12], in data set [5], the “Solubility in cell growth medium” value is given as “just slightly insoluble”. In data set [3], the “Tox 72 h TC50” value is >100 ∞M and the “Tox 120 h TC50” value was 50 ∞M. The “Trapped by dsDNA” value in data set [4] was “No”.
As to `O=C(O)Cn1c2ccc(Cl)cc2c2nc3ccccc3nc21` [Compound 13], the “Solubility in cell growth medium” value in data set [5] was “just slightly insoluble”. In data set [3], the “Tox 72 h TC50” value is recorded as 13 ∞M and the “Tox 120 h TC50” value is recorded as 30 ∞M. In addition, the “Trapped by dsDNA” value in data set [4] is listed as “No”.
`N=C1/C(=C/c2coc3ccccc3c2=O)C(=O)N=C2SC=NN12` [Compound 14]: in data set [2], the EC50 was 188 µM. Further, in data set [3], the “Tox 72 h TC50” value is >200 ∞M and the “Tox 120 h TC50” value was 50 ∞M. For the same compound, in data set [6], the EC50 was found to be 150 µM. The “Trapped by dsDNA” value in data set [4] is given as “No”.
On to `CC(=O)n1c2ccccc2c2nc(C)sc21` [Compound 15], for which the 50% effective concentration (EC50) in data set [2] was found to be 236 µM. Moreover, in data set [3], the “Tox 72 h TC50” value is given as >200 ∞M and the “Tox 120 h TC50” value was 75 ∞M. In data set [4], the “Trapped by dsDNA” value is listed as “No”.
Turning to `O=C1/C(=C/C2CCCO2)CC/C1=C\C1CCCO1` (stereo not drawn) [Compound 16], the “Solubility in cell growth medium” value in data set [5] was “just slightly insoluble”. Also, in data set [3], the “Tox 72 h TC50” value was >100 ∞M and the “Tox 120 h TC50” value is listed as 50 ∞M. Besides, the “Trapped by dsDNA” value in data set [4] is on record as “No”.
In the case of `O=C(NN1C(=O)C2C3C=CC(C4CC34)C2C1=O)c1ccc(C(F)(F)F)cc1` (stereo not drawn) [Compound 30, 4-trifluoromethyl-N-(3,3a,4,4a,5,5a,6,6a-octahydro-1,3-dioxo-4,6-ethenocycloprop[f]isoindol-2(1H)-yl)-benzamide], the “Growth of orthopoxviruses in cell cultures” value in data set [7] was “inhibit the growth”.

As a reminder, the EC50 is the concentration needed to bring the measured effect to its halfway point.
